Experimental data published in US8575091B1, “Amylin analogues and pharmaceutical compositions thereof” (Novo Nordisk A/S, priority 2012, dated 2013).
Read-outs that look alike come from different tables or passages of the source. Numbered stars: 1 amine (or outer) side, 2 acyl side, 3 side chain; on linkers, the order of the positions; unused ones are H or OH. Bridge positions count the residues as written; N and C are the ends. Peptide text beside a SMILES is read from it. * marks the point of attachment. C20 diacid = O=C(O)CCCCCCCCCCCCCCCCCCC(=O)*; γGlu = O=C(O)[C@H](CCC(=O)[*:2])N[*:1]

Key:
human amylin receptor = target: T1, human amylin receptor (Homo sapiens, UniProt O60896+P30988); test: Assay (V) binding to the human amylin receptor (SPA, 125I-rat amylin); settings: for IC50: human amylin receptor membranes, SPA, read-out: hAmylin-R bind IC50
T1 construct: expressed in transfected cells
T1 sequence (P30988 25-474): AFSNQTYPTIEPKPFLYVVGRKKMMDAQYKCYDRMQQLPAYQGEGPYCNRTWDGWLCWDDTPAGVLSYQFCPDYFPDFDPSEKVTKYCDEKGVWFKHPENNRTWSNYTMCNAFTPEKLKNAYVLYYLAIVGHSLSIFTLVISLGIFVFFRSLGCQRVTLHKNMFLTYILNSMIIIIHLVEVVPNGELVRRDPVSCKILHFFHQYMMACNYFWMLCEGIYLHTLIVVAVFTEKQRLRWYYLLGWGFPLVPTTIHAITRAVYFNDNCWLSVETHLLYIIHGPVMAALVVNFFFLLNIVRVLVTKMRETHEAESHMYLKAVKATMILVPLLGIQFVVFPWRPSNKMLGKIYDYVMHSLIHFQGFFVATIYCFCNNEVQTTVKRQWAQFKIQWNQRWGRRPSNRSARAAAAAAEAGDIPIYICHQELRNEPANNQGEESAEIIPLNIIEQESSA
T1 sequence (O60896 24-148 partner): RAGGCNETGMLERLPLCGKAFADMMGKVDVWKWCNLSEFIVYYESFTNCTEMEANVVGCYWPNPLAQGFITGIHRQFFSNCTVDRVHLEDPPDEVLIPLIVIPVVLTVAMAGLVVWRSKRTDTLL
Outline: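 SPA competition binding on membranes from Amylin 3(a)/CRE-luc cells, 35 ng/μL membranes with 0.05 mg/well beads. Buffer 50 mM Hepes pH 7.4, 1 mM CaCl2, 5 mM MgCl2, 0.1% OA, 0.02% Tween20. IC50 from one-site competition fit as affinity measure.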

[1] = target: T2, human amylin receptor (amylin 3(a) receptor: human calcitonin receptor + RAMP-3) (Homo sapiens, UniProt O60896+P30988); test: Assay (II)a functional assay, human amylin receptor (CRE luciferase, BHK cells); format: cell-based; settings: for EC50: read-out: hAmylin-R funct. EC50
T2 construct: expressed in transfected cells
T2 sequence (P30988 25-474): T1 sequence (P30988 25-474)
T2 sequence (O60896 24-148 partner): T1 sequence (O60896 24-148 partner)

[2] = target: T3, human calcitonin receptor (Homo sapiens, UniProt P30988); test: Assay (VII) binding to the human calcitonin receptor (SPA, 125I-Calcitonin); settings: read-out: hCTR bind IC50;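 note: cell membranes coupled to SPA beads, competitive displacement read by scintillation counting, IC50 derived from a one-site competition fit as a measure of receptor affinity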
T3 construct: expressed in transfected cells
T3 sequence (P30988 25-474): T1 sequence (P30988 25-474)

[3] = target: T3, human calcitonin receptor; test: Assay (II)a functional assay, human calcitonin receptor (CRE luciferase, BHK cells);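 note: luminescence from a CRE-driven luciferase reporter, read by single photon counting after cells were exposed to test samples for 3 h at 37 °C under 5% CO2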; format: cell-based; settings: read-out: hCTR funct. EC50
[4] = functional assay, human amylin receptor
[5] = Table 6, human functional selectivity (hCTR EC50 / hAmylin-R EC50)
[6] = Table 6a, human functional selectivity (hCTR EC50 / hAmylin-R EC50), at least 5
[7] = Table 6i, hCTR funct. EC50 / hAmylin-R funct. EC50
[8] = Table 6i, human amylin receptor functional
[9] = Table 6j, hCTR funct. EC50 / hAmylin-R funct. EC50
[10] = Table 6k, hCTR funct. EC50 / hAmylin-R funct. EC50

CC[C@H](C)[C@H](NC(=O)[C@H](C)NC(=O)CNC(=O)[C@H](Cc1ccccc1)NC(=O)[C@H](CC(N)=O)NC(=O)[C@@H]1CCCN1C(=O)[C@H](CO)NC(=O)[C@H](CO)NC(=O)[C@H](Cc1c[nH]cn1)NC(=O)[C@H](CCCNC(=N)N)NC(=O)[C@H](CC(C)C)NC(=O)[C@H](Cc1ccccc1)NC(=O)[C@H](CC(N)=O)NC(=O)[C@H](C)NC(=O)[C@H](CC(C)C)NC(=O)[C@H](CCCNC(=N)N)NC(=O)[C@H](CCC(N)=O)NC(=O)[C@@H](NC(=O)[C@H](C)NC(=O)[C@@H]1CSSC[C@H](NC(=O)[C@@H](N)CCCCNC(=O)COCCOCCNC(=O)COCCOCCNC(=O)CC[C@H](NC(=O)CCCCCCCCCCCCCCCCCCC(=O)O)C(=O)O)C(=O)N[C@@H](CC(N)=O)C(=O)N[C@@H]([C@@H](C)O)C(=O)N[C@@H](C)C(=O)N[C@@H]([C@@H](C)O)C(=O)N1)[C@@H](C)O)C(=O)N1CCC[C@H]1C(=O)N[C@@H](CO)C(=O)N[C@@H](CO)C(=O)N[C@H](C(=O)N[C@@H](CC(N)=O)C(=O)N[C@H](C(=O)NCC(=O)N[C@@H](CO)C(=O)N[C@@H](CCC(=O)O)C(=O)N[C@H](C(=O)N[C@@H](Cc1ccc(O)cc1)C(N)=O)[C@@H](C)O)C(C)C)[C@@H](C)O [Example 25]
IC50 (human amylin receptor): 0.768 nM | EC50 [1, 4]: 0.217 nM | IC50 [2]: 43.4 nM | EC50 [3]: 10 nM

CC[C@H](C)[C@H](NC(=O)[C@H](C)NC(=O)CNC(=O)[C@H](Cc1ccccc1)NC(=O)[C@H](CC(N)=O)NC(=O)[C@@H]1CCCN1C(=O)[C@H](CO)NC(=O)[C@H](CO)NC(=O)[C@H](Cc1c[nH]cn1)NC(=O)[C@H](CCCNC(=N)N)NC(=O)[C@H](CC(C)C)NC(=O)[C@H](Cc1ccccc1)NC(=O)[C@H](CC(N)=O)NC(=O)[C@H](C)NC(=O)[C@H](CC(C)C)NC(=O)[C@H](CCCNC(=N)N)NC(=O)[C@H](CCC(N)=O)NC(=O)[C@@H](NC(=O)[C@H](C)NC(=O)[C@@H]1CSSC[C@H](NC(=O)[C@@H](N)CCCCNC(=O)CC[C@H](NC(=O)CCCCCCCCCCCCCCCCCCC(=O)O)C(=O)O)C(=O)N[C@@H](CC(N)=O)C(=O)N[C@@H]([C@@H](C)O)C(=O)N[C@@H](C)C(=O)N[C@@H]([C@@H](C)O)C(=O)N1)[C@@H](C)O)C(=O)N1CCC[C@H]1C(=O)N[C@@H](CO)C(=O)N[C@@H](CO)C(=O)N[C@H](C(=O)N[C@@H](CC(N)=O)C(=O)N[C@H](C(=O)NCC(=O)N[C@@H](CO)C(=O)N[C@@H](CCC(=O)O)C(=O)N[C@H](C(=O)N[C@@H](Cc1ccc(O)cc1)C(N)=O)[C@@H](C)O)C(C)C)[C@@H](C)O [Example 27]
IC50 (human amylin receptor): 0.837 nM | EC50 [1, 4]: 0.133 nM | IC50 [2]: 34.5 nM | EC50 [3]: 3 nM

CC[C@H](C)[C@H](NC(=O)[C@H](C)NC(=O)CNC(=O)[C@H](Cc1ccccc1)NC(=O)[C@H](CC(N)=O)NC(=O)[C@@H]1CCCN1C(=O)[C@H](CO)NC(=O)[C@H](CO)NC(=O)[C@H](Cc1c[nH]cn1)NC(=O)[C@H](CCCNC(=N)N)NC(=O)[C@H](CC(C)C)NC(=O)[C@H](Cc1ccccc1)NC(=O)[C@H](Cc1c[nH]cn1)NC(=O)[C@H](C)NC(=O)[C@H](CC(C)C)NC(=O)[C@H](CCCNC(=N)N)NC(=O)[C@H](CCC(N)=O)NC(=O)[C@@H](NC(=O)[C@H](C)NC(=O)[C@@H]1CSSC[C@H](NC(=O)[C@H](CCCCN)NC(=O)CC[C@H](NC(=O)CCCCCCCCCCCCCCCCCCC(=O)O)C(=O)O)C(=O)N[C@@H](CC(N)=O)C(=O)N[C@@H]([C@@H](C)O)C(=O)N[C@@H](C)C(=O)N[C@@H]([C@@H](C)O)C(=O)N1)[C@@H](C)O)C(=O)N1CCC[C@H]1C(=O)N[C@@H](CO)C(=O)N[C@@H](CO)C(=O)N[C@H](C(=O)N[C@@H](CC(N)=O)C(=O)N[C@H](C(=O)NCC(=O)N[C@@H](CO)C(=O)N[C@@H](CCC(=O)O)C(=O)N[C@H](C(=O)N[C@@H](Cc1ccc(O)cc1)C(N)=O)[C@@H](C)O)C(C)C)[C@@H](C)O [Example 30] ({C20 diacid-γGlu}-KCNTATCATQRLAHFLRHSSPNFGAIPSSTNVGSETY-NH2; disulfide 2-7)
IC50 (human amylin receptor): 0.919 nM | EC50 [1, 4]: 0.134 nM | IC50 [2]: 21.7 nM | EC50 [3]: 1.68 nM

CC[C@H](C)[C@H](NC(=O)[C@H](C)NC(=O)CNC(=O)[C@H](Cc1ccccc1)NC(=O)[C@H](CC(N)=O)NC(=O)[C@@H]1CCCN1C(=O)[C@H](CO)NC(=O)[C@H](CO)NC(=O)[C@H](Cc1c[nH]cn1)NC(=O)[C@H](CCCNC(=N)N)NC(=O)[C@H](CC(C)C)NC(=O)[C@H](Cc1ccccc1)NC(=O)[C@H](CCC(=O)O)NC(=O)[C@H](C)NC(=O)[C@H](CC(C)C)NC(=O)[C@H](CCCNC(=N)N)NC(=O)[C@H](CCC(N)=O)NC(=O)[C@@H](NC(=O)[C@H](C)NC(=O)[C@@H]1CSSC[C@H](NC(=O)[C@H](CCCCN)NC(=O)CC[C@H](NC(=O)CCCCCCCCCCCCCCCCCCC(=O)O)C(=O)O)C(=O)N[C@@H](CC(N)=O)C(=O)N[C@@H]([C@@H](C)O)C(=O)N[C@@H](C)C(=O)N[C@@H]([C@@H](C)O)C(=O)N1)[C@@H](C)O)C(=O)N1CCC[C@H]1C(=O)N[C@@H](CO)C(=O)N[C@@H](CO)C(=O)N[C@H](C(=O)N1CCC[C@H]1C(=O)N[C@H](C(=O)NCC(=O)N[C@@H](CO)C(=O)N[C@@H](CC(N)=O)C(=O)N[C@H](C(=O)N[C@@H](Cc1ccc(O)cc1)C(N)=O)[C@@H](C)O)C(C)C)[C@@H](C)O [Example 31] ({C20 diacid-γGlu}-KCNTATCATQRLAEFLRHSSPNFGAIPSSTPVGSNTY-NH2; disulfide 2-7)
Ratio hCT/hAmylin binding (human amylin receptor; Table 7b, human calcitonin receptor binding IC50 divided by human amylin receptor binding IC50): 16.0 | IC50 (human amylin receptor): 0.204 nM | Ratio hCT/hAmylin binding (human amylin receptor; human binding ratio, included for comparison): 16.0 | Ratio hCT/hAmylin funct. [1, 5]: 6.4 | Ratio hCT/hAmylin funct. [1, 6]: 6.4 | Ratio hCT/hAmylin funct. [1, 7]: 6.4 | EC50 [1, 8]: 0.112 nM | Ratio hCT/hAmylin funct. [1, 9]: 6.4 | Ratio hCT/hAmylin funct. [1, 10]: 6.4 | IC50 [2]: 3.26 nM | EC50 [3]: 0.717 nM

CC[C@H](C)[C@H](NC(=O)[C@H](C)NC(=O)CNC(=O)[C@H](Cc1ccccc1)NC(=O)[C@H](CC(N)=O)NC(=O)[C@@H]1CCCN1C(=O)[C@H](CO)NC(=O)[C@H](CO)NC(=O)[C@H](Cc1c[nH]cn1)NC(=O)[C@H](CCCNC(=N)N)NC(=O)[C@H](CC(C)C)NC(=O)[C@H](Cc1ccccc1)NC(=O)[C@H](CCC(=O)O)NC(=O)[C@H](C)NC(=O)[C@H](CC(C)C)NC(=O)[C@H](CCCNC(=N)N)NC(=O)[C@H](CCC(N)=O)NC(=O)[C@@H](NC(=O)[C@H](C)NC(=O)[C@@H]1CSSC[C@H](NC(=O)[C@H](CCCCN)NC(=O)CC[C@H](NC(=O)CCCCCCCCCCCCCCCCCCC(=O)O)C(=O)O)C(=O)N[C@@H](CC(N)=O)C(=O)N[C@@H]([C@@H](C)O)C(=O)N[C@@H](C)C(=O)N[C@@H]([C@@H](C)O)C(=O)N1)[C@@H](C)O)C(=O)N1CCC[C@H]1C(=O)N[C@@H](CO)C(=O)N[C@@H](CO)C(=O)N[C@H](C(=O)N[C@@H](CC(N)=O)C(=O)N[C@H](C(=O)NCC(=O)N[C@@H](CCCCN)C(=O)N[C@@H](CC(N)=O)C(=O)N[C@H](C(=O)N[C@@H](Cc1ccc(O)cc1)C(N)=O)[C@@H](C)O)C(C)C)[C@@H](C)O [Example 36] ({C20 diacid-γGlu}-KCNTATCATQRLAEFLRHSSPNFGAIPSSTNVGKNTY-NH2; disulfide 2-7)
IC50 (human amylin receptor): 0.403 nM | Ratio hCT/hAmylin funct. [1, 5]: 6.8 | Ratio hCT/hAmylin funct. [1, 6]: 6.8 | Ratio hCT/hAmylin funct. [1, 7]: 6.8 | EC50 [1, 8]: 0.189 nM | Ratio hCT/hAmylin funct. [1, 9]: 6.8 | Ratio hCT/hAmylin funct. [1, 10]: 6.8 | IC50 [2]: 6.31 nM | EC50 [3]: 1.28 nM

CC[C@H](C)[C@H](NC(=O)[C@H](C)NC(=O)CNC(=O)[C@H](Cc1ccccc1)NC(=O)[C@H](CC(N)=O)NC(=O)[C@@H]1CCCN1C(=O)[C@H](CO)NC(=O)[C@H](CO)NC(=O)[C@H](Cc1c[nH]cn1)NC(=O)[C@H](CCCNC(=N)N)NC(=O)[C@H](CC(C)C)NC(=O)[C@H](Cc1ccccc1)NC(=O)[C@H](CC(N)=O)NC(=O)[C@H](C)NC(=O)[C@H](CC(C)C)NC(=O)[C@H](CCCNC(=N)N)NC(=O)[C@H](CCC(N)=O)NC(=O)[C@@H](NC(=O)[C@H](C)NC(=O)[C@@H]1CSSC[C@H](NC(=O)[C@H](CCCCN)NC(=O)CC[C@H](NC(=O)CCCCCCCCCCCCCCCCCCC(=O)O)C(=O)O)C(=O)N[C@@H](CC(N)=O)C(=O)N[C@@H]([C@@H](C)O)C(=O)N[C@@H](C)C(=O)N[C@@H]([C@@H](C)O)C(=O)N1)[C@@H](C)O)C(=O)N1CCC[C@H]1C(=O)N[C@@H](CO)C(=O)N[C@@H](CO)C(=O)N[C@H](C(=O)N[C@@H](CC(N)=O)C(=O)N[C@H](C(=O)NCC(=O)N[C@@H](Cc1c[nH]cn1)C(=O)N[C@@H](CC(N)=O)C(=O)N[C@H](C(=O)N[C@@H](Cc1ccc(O)cc1)C(N)=O)[C@@H](C)O)C(C)C)[C@@H](C)O [Example 40]
IC50 (human amylin receptor): 0.549 nM | EC50 [1, 4]: 0.164 nM | IC50 [2]: 17.1 nM | EC50 [3]: 2.68 nM
